Here are results for two compounds from patent US7862995B2, “Methods and materials for predicting responsiveness to treatment with dual tyrosine kinase inhibitor” (Targeted Molecular Diagnostics, priority 2004, dated 2011).

Data set [1] relates to forkhead transcription factor 3 (FOXO3A) in AU-565 breast cancer cells. Description: FOXO3A staining of AU-565 breast cancer cells. The class given is cell-based.
In another data set the test system is FOXO3. Description: ELISA gel for FOXO3. The following applies: following treatment.
Data set [2] can be described thus: Clinical response of a subject treated with a small molecule dual inhibitor of EGFR/erbB2. It counts as in vivo, human. To be noted: one subject.
Data set [3] has as its system invasive breast carcinoma. Description: TUNEL staining of PCD in patient tumor samples. The class given is in vivo, human.
Method: All TUNEL solutions and staining reagents used in the present invention were purchased from Roche. Paraffin-embedded tissue clinical samples were dewaxed and rehydrated by heating at 60° C. followed by washing in xylene and rehydration through a graded series of washes with ethanol and double distilled water. Samples were incubated for 15-30 min at 21-37° C. with Proteinase K. Slides were rinsed twice with PBS. The area around the sample was dried and 50 μl of TUNEL reaction mixture was added to each slide. A coverslip was added to each slide and incubated for 60 min at 37° C. in a humidified chamber in the dark. The slides were rinsed three times with PBS. The TUNEL signal was converted by first drying the area around the sample and then adding 50 μl of Converter-POD reagent. The slides were incubated in a humidified chamber for 30 min at 37° C. and then rinsed three times in PBS. 100 μl of DAB Substrate was added to each slide and incubated for 10 min at 15-25° C. The slides were then rinsed three times with PBS. Slides were mounted under glass coverslips and TUNEL staining was analyzed under a light microscope.
Data set [4] concerns ER in breast cancer tissues. Description: IHC of ER in breast cancer tissues after treatment. The class given is in vivo.
A further data set has as its system ER in MCF-7(HER2) cells. Description: ER localization by immunofluorescence in MCF-7(HER2) cells. The class given is cell-based. To be noted: 1 mM GW2974 for 4 days. From the text:
Nuclei are stained with DAPI and ER is detected by an immunofluorescent antibody

For data set [5], the system named is pAkt, pErk1 and pErk2 in MCF-7+HER2 cells. Description: Western blot of MCF-7+HER2 cells for pErk1/Erk2/pAkt. The class given is cell-based. For orientation: A western blot detects proteins with antibodies after separation by electrophoresis.
In data set [6] the test system is ER (and PR) expression in breast cancer cells. Description: ER (and PR) expression in breast cancer cells. It counts as cell-based.
Data set [7] relates to breast, gastric, and head/neck carcinoma cell lines compared to normal human foreskin fibroblasts (HFF). To be noted: cited from earlier work.
For data set [8], the system named is AU-565 breast cancer cells. Description: Viability of AU-565 and Bcl-2-transfected AU-565 cells after GW2974 treatment. The class given is cell-based. The source says: Au-565 breast cancer cells were obtained from the American Tissue Culture Collection, (deposit # CRL-2351) (Manassas, Va.) and were transfected with a Bcl-2 cDNA to express high levels of Bcl-2. Methods of transfecting cells are well known in the art and any known methods may be used in this example. Transfected Au-565 cells were then exposed to GW2974 (Sigma-Aldrich, St. Louis, Mo.), a dual EGFR/HER2 tyrosine kinase inhibitor.

A further data set relates to BT474 breast tumor cells. Description: Cell death in estrogen-stimulated BT474 cells, methylene blue staining. The class given is cell-based, human. To be noted: 1 μM estrogen 24 hr, 5 μM GW2974 90 min, 10 μM tamoxifen 72 hr. How it is done: Exponentially growing BT474 cells were treated with 1 μM estrogen for 24 hr. After 24 hr the cells were either untreated or treated with 5 μM small molecule dual inhibitor of EGFR/erbB2 (Sigma, GW2974) for 90 min. After 90 min, the cells were either untreated or treated with 10 μM tamoxifen for 72 hr. Cells were then washed with 1×PBS, stained with methylene blue (1% methylene blue in 50% methanol), rinsed with water, and dried overnight.

Molecules are shown by their SMILES. Entries after “also recorded” stand apart in the source; their conditions may differ.

In the case of `CS(=O)(=O)CCNCc1ccc(-c2ccc3ncnc(Nc4ccc(OCc5cccc(F)c5)c(Cl)c4)c3c2)o1` [lapatinib], the FOXO3A expression result in [1] is “upregulated; also recorded: upregulates FOXO3A”. In addition, in the data set on FOXO3, the FOXO3 expression result is on record as “upregulation of FOXO3”. Moreover, in data set [2], the clinical response result is recorded as “complete response”. The “duration of response / disease free state” value in data set [2] (following treatment) is given as “at least 20 months”. In data set [3] (patient with invasive breast carcinoma (IBC) positive for TUNEL staining), the “response of TUNEL-positive patient to treatment” value was “responded well”. For the same compound, the “levels of PCD by TUNEL staining” value in data set [3] (patient with invasive breast carcinoma, 21 days after treatment) is reported as “significantly increased levels of PCD”. For the same compound, in data set [4], the ER localization entry is “change in ER localization”.

In the case of `CN(C)c1cc2c(Nc3ccc4c(cnn4Cc4ccccc4)c3)ncnc2cn1` [GW2974], the ER localization entry in the data set with ER in MCF-7(HER2) cells is “accumulation of the ER in the cellular nucleus”. Moreover, the “effectiveness in cells pre-treated with estrogen” value in [5] (MCF-7+HER2 cells pre-treated with estrogen, then GW2974) is reported as “not effective”. For the same compound, in data set [5] (MCF-7+HER2 cells treated with GW2974), the pAkt expression entry is listed as “not expressed; also recorded: greatly reduced”. Further, the “expression of pErk1 and pErk2” value in data set [5] (MCF-7+HER2 cells treated with GW2974, relative to baseline control (actin)) is “decreased”. Besides, in data set [6], the “ER (and PR) expression” value is given as “upregulates ER (and PR) expression”. In addition, in data set [7], the “selectivity in inhibiting cell growth” value was “greater than 75 fold”. Also, the values for the viable cells result in data set [8] (AU-565/Bcl-2 cells (overexpressing Bcl-2) treated by GW2974) and in data set [8] (AU-565 cells treated by GW2974) were “approximately 50%” and approximately 20%, respectively. In addition, the “higher rate of cell survival in cells with high Bcl-2 expression” value in data set [8] (following treatment with GW2974) was “approximately 30%”. For the same compound, the cell death entry in the data set on BT474 breast tumor cells is “increases cell death in the presence of tamoxifen”.
